MIC data for eight molecules are collected here from patent US4948782A, “A method of promoting the growth of domestic animals with erythromycin derivative containing composition” (Kitasato Kenkyusho, priority 1987, dated 1990).

Holding throughout (assay type): cell-based
For test [1], the system named is Staphylococcus aureus FDA 209P. Put plainly: MIC, Staphylococcus aureus FDA 209P (SA(2)). As to conditions: Staphylococcus aureus, FDA209P, Staphylococcus aureus FDA 209P; read-out: MIC SA (2). The text has this:
(§1) The minimum inhibitory concentrations (MIC: mcg/ml) of the erythromycin derivatives of the present invention and the control erythromycin derivative (*) as the known growth promoting agent on typical test bacteria are shown in the following Tables 1 to 5.
SA(2): Staphylococcus aureus FDA 209P

Test [2] relates to Staphylococcus aureus ATCC 6538P. Put plainly: MIC, Staphylococcus aureus ATCC 6538P (SA(1)). To be noted: Staphylococcus aureus, ATCC6538P, Staphylococcus aureus ATCC 6538P; read-out: MIC SA (1).
Description: as §1
SA(1): Staphylococcus aureus ATCC 6538P

Test [3] relates to Bacillus cereus IFO 3001. Put plainly: MIC, Bacillus cereus IFO 3001 (BC). As to conditions: Bacillus cereus, IFO3001, Bacillus cereus IFO 3001; read-out: MIC BC.
Test [4] deals with Klebsiella pneumoniae ATCC 10031. Put plainly: MIC, Klebsiella pneumoniae ATCC 10031 (KP). To be noted: ATCC10031; Klebsiella pneumoniae ATCC 10031; read-out: MIC KP.
Test [5] concerns Escherichia coli NIHJ. Put plainly: MIC, Escherichia coli NIHJ (EC).
The subject of test [6] is Bacillus subtilis. Put plainly: MIC, Bacillus subtilis (BS). To be noted: read-out: MIC BS.

The structures appear in SMILES notation.

What is called MIC is the lowest concentration that inhibits growth of the organism.

On to `C#CC[N+](C)(C)[C@H]1C[C@@H](C)O[C@@H](O[C@@H]2[C@@H](C)[C@H](O[C@H]3C[C@@](C)(OC)[C@@H](OC=O)[C@H](C)O3)[C@@H](C)C(=O)O[C@H](CC)[C@@](C)(O)[C@H](O)[C@@H](C)C3=C(C)C[C@@]2(C)O3)[C@@H]1O` [Compound 60], for which the MIC in test [1], in test [2], in test [3], in test [4], in test [5] and in test [6] was over 100 µg/mL in each case.

As to `CC[C@H]1OC(=O)[C@H](C)[C@@H](O[C@H]2C[C@@](C)(OC)[C@@H](O)[C@H](C)O2)[C@H](C)[C@@H](O[C@@H]2O[C@H](C)C[C@H]([N+](C)(C)CC)[C@H]2O)[C@@]2(C)CC(C)=C(O2)[C@H](C)[C@@H](O)[C@]1(C)O` [Compound 61], the MIC in test [1], in test [2], in test [3], in test [4], in test [5] and in test [6] was over 100 µg/mL throughout.

For `CC[C@H]1OC(=O)[C@H](C)[C@@H](O[C@H]2C[C@@](C)(OC)[C@@H](O)[C@H](C)O2)[C@H](C)[C@@H](O[C@@H]2O[C@H](C)C[C@H]([N+](C)(C)C)[C@H]2O)[C@@]2(C)CC(C)C(O2)[C@H](C)[C@@H](O)[C@]1(C)O` (stereo partly drawn) [Compound 62], the MIC in test [1], in test [2], in test [3], in test [4], in test [5] and in test [6] was over 100 µg/mL each time.

Consider `CC[C@H]1OC(=O)[C@H](C)[C@@H](O[C@H]2C[C@@](C)(OC)[C@@H](O)[C@H](C)O2)[C@H](C)[C@@H](O[C@@H]2O[C@H](C)C[C@H]([N+](C)(C)CC)[C@H]2O)[C@@]2(C)CC(C)C(O2)[C@H](C)[C@@H](O)[C@]1(C)O` (stereo partly drawn) [Compound 63], for which the MIC in test [1], in test [2], in test [3], in test [4], in test [5] and in test [6] was over 100 µg/mL in each case.

On to `CCC[N+](C)(C)[C@H]1C[C@@H](C)O[C@@H](O[C@@H]2[C@@H](C)[C@H](O[C@H]3C[C@@](C)(OC)[C@@H](O)[C@H](C)O3)[C@@H](C)C(=O)O[C@H](CC)[C@@](C)(O)[C@H](O)[C@@H](C)C3O[C@]2(C)CC3C)[C@@H]1O` (stereo partly drawn) [Compound 64], for which the MIC in test [1], in test [2], in test [3], in test [4], in test [5] and in test [6] was over 100 µg/mL in each case.

Turning to `CCCC[N+](C)(C)[C@H]1C[C@@H](C)O[C@@H](O[C@@H]2[C@@H](C)[C@H](O[C@H]3C[C@@](C)(OC)[C@@H](O)[C@H](C)O3)[C@@H](C)C(=O)O[C@H](CC)[C@@](C)(O)[C@H](O)[C@@H](C)C3O[C@]2(C)CC3C)[C@@H]1O` (stereo partly drawn) [Compound 65], the MIC in test [1] is 100 µg/mL; in test [2] it was 100 µg/mL; in test [3], 100 µg/mL; in test [4] it was over 100 µg/mL; in test [5] it was over 100 µg/mL; in test [6], 50 µg/mL.

With `C=CC[N+](C)(C)[C@H]1C[C@@H](C)O[C@@H](O[C@@H]2[C@@H](C)[C@H](O[C@H]3C[C@@](C)(OC)[C@@H](O)[C@H](C)O3)[C@@H](C)C(=O)O[C@H](CC)[C@@](C)(O)[C@H](O)[C@@H](C)C3O[C@]2(C)CC3C)[C@@H]1O` (stereo partly drawn) [Compound 66], the MIC in test [1] was 100 µg/mL; in test [2], 100 µg/mL; in test [3], 100 µg/mL; in test [4], over 100 µg/mL; in test [5], over 100 µg/mL; in test [6], 100 µg/mL.

Consider `C#CC[N+](C)(C)[C@H]1C[C@@H](C)O[C@@H](O[C@@H]2[C@@H](C)[C@H](O[C@H]3C[C@@](C)(OC)[C@@H](O)[C@H](C)O3)[C@@H](C)C(=O)O[C@H](CC)[C@@](C)(O)[C@H](O)[C@@H](C)C3O[C@]2(C)CC3C)[C@@H]1O` (stereo partly drawn) [Compound 67], for which the MIC in test [1], in test [2], in test [3], in test [4], in test [5] and in test [6] was over 100 µg/mL in each case.
